How the values were obtained:
[1] = test system: secretion of growth hormone (GH) from the pituitary gland; details: Broglio et al. 2004; cited from earlier work
[2] = test system: rats with hyperthermia; test: Suppressive effect of desacyl ghrelin against body temperature increase in rats with hyperthermia (rectal temperature, survival); format: in vivo, rat
Experimental: The rectal temperature was measured with a small animal body temperature controller ATC-101B made by Unique Medical Co., Ltd.
The life or death of each animal was determined in a comprehensive manner based on changes in the heart rate, respiratory rate, and body temperature, the amount of activity, the response to a physical stimulation, etc.
This experiment was performed in the same manner as in Example 1 unless otherwise stated.
While maintaining the air temperature in the laboratory at 33 to 35° C., the humidity was increased from 30% (at the beginning of the experiment) to 75% (at the end of the experiment), and thus the laboratory conditions were gradually changed to high temperature and high humidity conditions. The rats were then carried into the laboratory. The rats were housed in a plastic cage in groups of three each. […] As a control, 200 μl/rat of physiological saline was intraperitoneally injected to the rats.
At the elapsed time of 110 minutes (80 minutes after the intraperitoneal injection), the rats were transferred from the laboratory to room temperature.
At the elapsed time of 130 minutes (100 minutes after the intraperitoneal injection), the life or death of each rat was determined by visual observation and palpation.
The body temperature was measured at the rectum in this Example.

[3] = test system: rats with the normal body temperature; test: Hypothermic effect of desacyl ghrelin in rats with normal body temperature (back/tail surface temperature by thermography); format: in vivo, rat; details: male Wistar rats
Experimental: Male Wistar rats (9 to 10 weeks old) were used as experimental animals.
The administration to the animals was performed by a single dose of intraperitoneal or intracerebroventricular injection. The dose was 3 nmol/rat for intraperitoneal administration and 0.5 nmol/rat for intracerebroventricular administration, regardless of the weight of the animals. The weight of the rats varied from 350.2 to 375.8 g.
The back or tail surface temperature of the animals was measured for 1 hour at intervals of 1 minute by thermography using FLIR SC620 (software name: FLIR Rsearch IR) made by FLIR Systems Inc. The body temperature values measured by thermography are shown as increase and decrease from the zero reference point obtained by measurement of the body temperature for 10 minutes prior to the intraperitoneal injection.
The laboratory was maintained at room temperature and the rats were carried thereinto. […] As another control, 200 μl/rat of physiological saline was intraperitoneally injected to the rats.
As a control, 0.5 nmol/rat of the rat-derived ghrelin was intracerebroventricularly administered the rats. As another control, 200 μl/rat of physiological saline was intracerebroventricularly administered to the rats.
The back and tail surface temperatures were measured by thermography in this Example.

Question: Which “activity to increase the secretion of growth hormone (GH) from the pituitary gland” value [1] does the source give for desacyl ghrelin here?
Answer: The value was “almost no activity”.

Question: And the “survival (life or death of each rat)” value ([2]; elapsed time 130 minutes (100 minutes after 10 nmol/rat i.p.), three rats per group, two of three control rats died)?
Answer: The value was “all the three rats in the desacyl ghrelin-administered group survived”.

Question: And the “Body temperature of rats” value ([2]; rectal, elapsed time 0 minutes at 33 to 35° C. (before the injection))?
Answer: The value was 36.1 ± 0.1 °C.

Question: What about the “body temperature, lower than that of the physiological saline-administered group” value ([2]; rectal, elapsed time 50 to 110 minutes (20 to 80 minutes after 10 nmol/rat i.p.), p<0.05 or 0.01) of the same substance?
Answer: Its value is 0.3 to 1.2 °C.

Question: And the “Body temperature of rats” value ([2]; rectal, elapsed time 10 minutes (before the injection))?
Answer: The value was 37.0 ± 0.1 °C.

Question: What about the “Body temperature of rats” value ([2]; rectal, elapsed time 20 minutes (before the injection)) of the same substance?
Answer: The value was 38.2 ± 0.2 °C.

Question: And the “Body temperature of rats” value ([2]; rectal, elapsed time 30 minutes (time of intraperitoneal injection, 10 nmol/rat))?
Answer: The value was 38.8 ± 0.2 °C.

Question: And the “Body temperature of rats” value ([2]; rectal, elapsed time 40 minutes (10 minutes after 10 nmol/rat i.p.))?
Answer: The value was 39.2 ± 0.2 °C.

Question: What about the “Body temperature of rats” value ([2]; rectal, elapsed time 50 minutes (20 minutes after 10 nmol/rat i.p.)) of the same substance?
Answer: Its value is 39.7 ± 0.0 °C.

Question: And the “Body temperature of rats” value ([2]; rectal, elapsed time 60 minutes (30 minutes after 10 nmol/rat i.p.))?
Answer: Its value is 39.9 ± 0.1 °C.

Question: And the “Body temperature of rats” value ([2]; rectal, elapsed time 70 minutes (40 minutes after 10 nmol/rat i.p.))?
Answer: Its value is 40.0 ± 0.3 °C.

Question: What about the “Body temperature of rats” value ([2]; rectal, elapsed time 80 minutes (50 minutes after 10 nmol/rat i.p.)) of the same substance?
Answer: The value was 40.2 ± 0.2 °C.

Question: And the “Body temperature of rats” value ([2]; rectal, elapsed time 90 minutes (60 minutes after 10 nmol/rat i.p.))?
Answer: The value was 40.0 ± 0.2 °C.

Question: And the “Body temperature of rats” value ([2]; rectal, elapsed time 100 minutes (70 minutes after 10 nmol/rat i.p.))?
Answer: The value was 40.1 ± 0.2 °C.

Question: What about the “Body temperature of rats” value ([2]; rectal, elapsed time 110 minutes (80 minutes after 10 nmol/rat i.p.)) of the same substance?
Answer: The value was 40.3 ± 0.1 °C.

Question: And the “hypothermic effect in back surface temperature compared with ghrelin-administered group” value ([3]; 0.5 nmol/rat intracerebroventricular, 10 to 30 minutes after injection (FIG. 3))?
Answer: The value was “higher hypothermic effect”.

Question: What about the “heat dissipation effect compared with ghrelin” value ([3]; 3 nmol/rat intraperitoneal, tail surface temperature (FIG. 2)) of the same substance?
Answer: Its value is “more excellent than that of ghrelin”.

Question: And the tail surface temperature ([3]; 3 nmol/rat intraperitoneal, thermography (FIG. 2))?
Answer: The tail surface temperature was “increased”.

Question: And the “back surface temperature, lower than that of the physiological-saline administered group” value ([3]; room temperature, 3 nmol/rat intraperitoneal, 5 to 60 minutes after injection, thermography (FIG. 1))?
Answer: Its value is 0.3 to 0.8 °C.

Source: patent US9555077B2 (UNIVERSITY OF MIYAZAKI, priority 2011, dated 2017)
